Columns and labels:
[1] = target: CDK9/cyclin T1 (Homo sapiens) (UniProt O60563+P50750); assay: Inhibition of CDK9/Cyclin T1 (unknown origin) using PDKtide substrate at 500 nM incubated for 60 mins by ADP-Glo kinase assay relative to control; type: protein-complex assay
CDK9/cyclin T1 = CDK9/cyclin T1 (Homo sapiens, UniProt P50750); assay: Inhibition of CDK9/Cyclin T1 (unknown origin) using PDKtide substrate incubated for 60 mins by ADP-Glo kinase assay; type: protein-complex assay
HCT-116 = assay: Growth inhibition of human HCT-116 cells incubated for 48 hrs by CCK-8 assay; type: functional
HT-29 = assay: Growth inhibition of human HT-29 cells incubated for 48 hrs by CCK-8 assay; type: functional
[2] = target: Cyclin-dependent kinase 8 (Homo sapiens, UniProt P49336); assay: Inhibition of CDK8 (unknown origin)
[3] = Intrinsic clearance in human liver microsomes at 100 uM measured upto 60 mins in presence of NADPH by LC-MS/MS analysis; type: ADME, Microsome; settings: 1 h
CYP3A4 = CYP3A4 (Homo sapiens, UniProt P08684); assay: Inhibition of CYP3A4 in human liver microsomes using ketoconazole as […] at 10 uM preincubated for 10 mins followed by NADPH addition measured after 15 mins by LC-MS/MS analysis relative to control; type: ADME, Microsome; settings: probe ketoconazole, time 25 min
[4] = Half life in human liver microsomes at 100 uM measured upto 60 mins in presence of NADPH by LC-MS/MS analysis; type: ADME, Microsome
[5] = target: Cyclin-dependent kinase 12 (Homo sapiens, UniProt Q9NYV4); assay: Inhibition of CDK12 (unknown origin)
[6] = target: Cyclin-dependent kinase 2 (Homo sapiens, UniProt P24941); assay: Inhibition of CDK2 (unknown origin)
CYP2D6 = CYP2D6 (Homo sapiens, UniProt P10635); assay: Inhibition of CYP2D6 in human liver microsomes using quinidine as […] at 10 uM preincubated for 10 mins followed by NADPH addition measured after 15 mins by LC-MS/MS analysis relative to control; type: ADME, Microsome; settings: time 25 min
[7] = Intrinsic microsomal clearance in human liver microsomes at 100 uM measured upto 60 mins in presence of NADPH by LC-MS/MS analysis; type: ADME, Microsome; settings: read-out: CLH
[8] = target: Cyclin-dependent kinase 6 (Homo sapiens, UniProt Q00534); assay: Inhibition of CDK6 (unknown origin)
CYP2C9 = CYP2C9 (Homo sapiens, UniProt P11712); assay: Inhibition of CYP2C9 in human liver microsomes using sulfaphenazole as […] at 10 uM preincubated for 10 mins followed by NADPH addition measured after 15 mins by LC-MS/MS analysis relative to control; type: ADME, Microsome; settings: probe sulfaphenazole, time 25 min
[9] = target: Cyclin-dependent kinase 9 (Homo sapiens, UniProt P50750); assay: Inhibition of CDK9 (unknown origin)
[10] = target: Cyclin-dependent kinase 7 (Homo sapiens, UniProt P50613); assay: Inhibition of CDK7 (unknown origin)
[11] = Stability in human liver microsomes assessed as compound remaining at 100 uM measured upto 60 mins in presence of NADPH by LC-MS/MS analysis; type: ADME, Microsome; settings: read-out: Stability
[12] = target: Cyclin-dependent kinase 1 (Homo sapiens, UniProt P06493); assay: Inhibition of CDK1 (unknown origin)
CYP2C19 = CYP2C19 (Homo sapiens, UniProt P33261); assay: Inhibition of CYP2C19 in human liver microsomes using benzylnirvanol as […] at 10 uM preincubated for 10 mins followed by NADPH addition measured after 15 mins by LC-MS/MS analysis relative to control; type: ADME, Microsome; settings: probe benzylnirvanol, time 25 min
[13] = Half life in human plasma measured upto 120 mins by LC-MS/MS analysis; type: ADME, cell-free
[14] = target: Cyclin-dependent kinase 5 (Homo sapiens, UniProt Q00535); assay: Inhibition of CDK5 (unknown origin)
[15] = target: Cyclin-dependent kinase 4 (Homo sapiens, UniProt P11802); assay: Inhibition of CDK4 (unknown origin)
CYP1A2 = target: T1, CYP1A2 (Homo sapiens, UniProt P05177); assay: Inhibition of CYP1A2 in human liver microsomes using alpha-naphthoflavone as […] at 10 uM preincubated for 10 mins followed by NADPH addition measured after 15 mins by LC-MS/MS analysis relative to control; type: ADME, Microsome; settings: time 25 min
T1 sequence (P05177 whole entry): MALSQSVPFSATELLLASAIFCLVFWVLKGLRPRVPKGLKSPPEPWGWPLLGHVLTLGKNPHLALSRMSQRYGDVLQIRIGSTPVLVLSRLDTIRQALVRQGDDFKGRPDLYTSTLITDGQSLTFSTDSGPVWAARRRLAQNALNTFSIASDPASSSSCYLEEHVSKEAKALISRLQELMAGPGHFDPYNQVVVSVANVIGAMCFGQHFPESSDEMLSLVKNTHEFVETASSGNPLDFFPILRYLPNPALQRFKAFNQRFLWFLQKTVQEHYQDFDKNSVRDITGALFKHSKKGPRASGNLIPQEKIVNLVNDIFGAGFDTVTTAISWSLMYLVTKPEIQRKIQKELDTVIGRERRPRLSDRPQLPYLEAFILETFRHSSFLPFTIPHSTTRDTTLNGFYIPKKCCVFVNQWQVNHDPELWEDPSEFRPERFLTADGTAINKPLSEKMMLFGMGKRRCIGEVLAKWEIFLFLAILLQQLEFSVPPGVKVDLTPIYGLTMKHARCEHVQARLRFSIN

CDK9/cyclin T1, sequence (O60563 whole entry): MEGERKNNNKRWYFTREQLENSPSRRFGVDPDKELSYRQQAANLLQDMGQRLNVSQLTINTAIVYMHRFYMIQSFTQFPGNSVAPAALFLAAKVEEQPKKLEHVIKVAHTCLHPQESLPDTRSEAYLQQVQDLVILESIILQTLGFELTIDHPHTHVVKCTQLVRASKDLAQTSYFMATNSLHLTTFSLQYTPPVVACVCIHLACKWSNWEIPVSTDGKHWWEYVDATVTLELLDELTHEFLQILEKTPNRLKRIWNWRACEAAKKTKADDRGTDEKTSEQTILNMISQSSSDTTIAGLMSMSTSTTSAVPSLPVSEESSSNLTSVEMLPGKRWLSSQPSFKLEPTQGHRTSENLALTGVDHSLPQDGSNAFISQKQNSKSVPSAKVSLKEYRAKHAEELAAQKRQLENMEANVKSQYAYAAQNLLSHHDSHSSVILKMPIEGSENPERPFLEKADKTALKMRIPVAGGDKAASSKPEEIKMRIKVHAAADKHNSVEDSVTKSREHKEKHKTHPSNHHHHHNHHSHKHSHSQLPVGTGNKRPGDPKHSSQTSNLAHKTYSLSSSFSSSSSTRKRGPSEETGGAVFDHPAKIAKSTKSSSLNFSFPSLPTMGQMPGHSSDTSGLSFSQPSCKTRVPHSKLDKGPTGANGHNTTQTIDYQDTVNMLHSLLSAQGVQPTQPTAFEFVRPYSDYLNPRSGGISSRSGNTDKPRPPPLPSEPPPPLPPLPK
CDK9/cyclin T1, sequence (P50750 whole entry): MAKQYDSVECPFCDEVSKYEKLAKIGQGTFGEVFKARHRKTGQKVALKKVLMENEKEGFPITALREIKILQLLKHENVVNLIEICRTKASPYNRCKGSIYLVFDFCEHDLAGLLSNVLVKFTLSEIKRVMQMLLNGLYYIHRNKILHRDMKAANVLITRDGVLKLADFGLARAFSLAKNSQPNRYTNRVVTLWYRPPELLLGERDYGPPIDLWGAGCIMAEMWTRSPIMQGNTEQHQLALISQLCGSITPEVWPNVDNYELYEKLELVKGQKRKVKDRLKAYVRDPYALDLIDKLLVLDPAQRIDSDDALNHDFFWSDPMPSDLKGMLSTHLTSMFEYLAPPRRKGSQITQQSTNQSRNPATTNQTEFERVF
Cyclin-dependent kinase 1, sequence (P06493 whole entry): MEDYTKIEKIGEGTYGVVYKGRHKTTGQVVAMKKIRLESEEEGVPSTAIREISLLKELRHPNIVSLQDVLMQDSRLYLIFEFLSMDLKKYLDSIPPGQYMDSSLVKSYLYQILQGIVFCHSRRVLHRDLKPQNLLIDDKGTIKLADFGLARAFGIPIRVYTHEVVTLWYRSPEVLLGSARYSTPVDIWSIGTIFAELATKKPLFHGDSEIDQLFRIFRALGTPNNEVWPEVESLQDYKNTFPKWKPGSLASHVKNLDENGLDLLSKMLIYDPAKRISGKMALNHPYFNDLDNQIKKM
Cyclin-dependent kinase 8, sequence (P49336 whole entry): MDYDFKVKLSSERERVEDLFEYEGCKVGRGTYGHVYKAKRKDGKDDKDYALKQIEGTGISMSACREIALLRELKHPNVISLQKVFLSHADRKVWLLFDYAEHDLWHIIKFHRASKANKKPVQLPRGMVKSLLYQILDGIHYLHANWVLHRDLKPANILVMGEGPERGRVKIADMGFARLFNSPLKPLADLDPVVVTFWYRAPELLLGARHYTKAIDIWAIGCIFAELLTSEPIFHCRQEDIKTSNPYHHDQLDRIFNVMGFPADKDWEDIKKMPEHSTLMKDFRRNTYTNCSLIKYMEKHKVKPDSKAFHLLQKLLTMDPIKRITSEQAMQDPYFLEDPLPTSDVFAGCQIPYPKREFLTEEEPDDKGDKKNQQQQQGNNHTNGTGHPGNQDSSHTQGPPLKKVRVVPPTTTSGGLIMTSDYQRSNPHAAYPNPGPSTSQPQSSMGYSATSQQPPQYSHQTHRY
Cyclin-dependent kinase 4, sequence (P11802 whole entry): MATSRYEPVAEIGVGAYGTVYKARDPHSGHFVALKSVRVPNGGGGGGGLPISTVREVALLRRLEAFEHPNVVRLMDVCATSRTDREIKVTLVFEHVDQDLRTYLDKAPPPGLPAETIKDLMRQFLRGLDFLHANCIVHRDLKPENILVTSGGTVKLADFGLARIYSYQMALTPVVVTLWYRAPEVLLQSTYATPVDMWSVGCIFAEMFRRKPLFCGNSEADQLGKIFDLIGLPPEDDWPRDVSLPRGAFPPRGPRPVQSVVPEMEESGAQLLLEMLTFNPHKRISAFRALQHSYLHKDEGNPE
CYP2C9, sequence (P11712 whole entry): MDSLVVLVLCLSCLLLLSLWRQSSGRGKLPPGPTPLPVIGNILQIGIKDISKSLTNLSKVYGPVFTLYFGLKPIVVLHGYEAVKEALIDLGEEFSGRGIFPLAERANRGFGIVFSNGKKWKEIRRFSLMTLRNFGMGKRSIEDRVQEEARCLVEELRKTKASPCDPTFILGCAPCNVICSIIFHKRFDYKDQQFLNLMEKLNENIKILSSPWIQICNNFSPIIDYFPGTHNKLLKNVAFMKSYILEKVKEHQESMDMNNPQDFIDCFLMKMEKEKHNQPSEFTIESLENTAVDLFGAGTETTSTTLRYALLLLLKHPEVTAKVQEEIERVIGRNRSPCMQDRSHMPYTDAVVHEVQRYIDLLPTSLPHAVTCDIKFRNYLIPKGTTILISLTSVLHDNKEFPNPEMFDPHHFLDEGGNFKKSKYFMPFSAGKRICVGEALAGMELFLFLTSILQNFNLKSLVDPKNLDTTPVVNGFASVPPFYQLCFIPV
CYP3A4, sequence (P08684 whole entry): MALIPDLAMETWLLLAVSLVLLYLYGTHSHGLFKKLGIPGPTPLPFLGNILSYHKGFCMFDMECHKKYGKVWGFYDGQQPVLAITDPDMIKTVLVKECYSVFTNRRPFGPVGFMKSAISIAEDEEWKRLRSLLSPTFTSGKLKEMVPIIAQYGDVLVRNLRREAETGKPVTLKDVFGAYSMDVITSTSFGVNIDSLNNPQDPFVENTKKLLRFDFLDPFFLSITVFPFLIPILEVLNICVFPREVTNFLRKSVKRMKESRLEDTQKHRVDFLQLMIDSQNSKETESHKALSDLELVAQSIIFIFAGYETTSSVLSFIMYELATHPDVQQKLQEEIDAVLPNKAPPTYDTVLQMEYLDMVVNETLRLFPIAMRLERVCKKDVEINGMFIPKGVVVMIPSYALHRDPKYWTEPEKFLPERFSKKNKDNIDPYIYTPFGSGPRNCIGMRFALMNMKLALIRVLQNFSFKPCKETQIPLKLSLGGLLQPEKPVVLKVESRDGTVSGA
CYP2C19, sequence (P33261 whole entry): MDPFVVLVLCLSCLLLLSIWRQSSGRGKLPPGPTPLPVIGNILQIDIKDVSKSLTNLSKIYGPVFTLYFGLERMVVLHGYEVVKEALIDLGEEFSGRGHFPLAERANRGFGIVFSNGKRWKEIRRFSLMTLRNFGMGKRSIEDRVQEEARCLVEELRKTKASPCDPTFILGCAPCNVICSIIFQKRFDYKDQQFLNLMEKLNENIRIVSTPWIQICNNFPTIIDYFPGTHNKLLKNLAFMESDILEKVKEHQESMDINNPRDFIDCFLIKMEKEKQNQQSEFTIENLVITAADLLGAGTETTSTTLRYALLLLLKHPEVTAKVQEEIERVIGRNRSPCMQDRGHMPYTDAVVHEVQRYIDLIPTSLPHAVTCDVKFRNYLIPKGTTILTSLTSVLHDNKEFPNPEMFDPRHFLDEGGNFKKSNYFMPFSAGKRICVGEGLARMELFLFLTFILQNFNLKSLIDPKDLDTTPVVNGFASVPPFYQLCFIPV
Cyclin-dependent kinase 7, sequence (P50613 whole entry): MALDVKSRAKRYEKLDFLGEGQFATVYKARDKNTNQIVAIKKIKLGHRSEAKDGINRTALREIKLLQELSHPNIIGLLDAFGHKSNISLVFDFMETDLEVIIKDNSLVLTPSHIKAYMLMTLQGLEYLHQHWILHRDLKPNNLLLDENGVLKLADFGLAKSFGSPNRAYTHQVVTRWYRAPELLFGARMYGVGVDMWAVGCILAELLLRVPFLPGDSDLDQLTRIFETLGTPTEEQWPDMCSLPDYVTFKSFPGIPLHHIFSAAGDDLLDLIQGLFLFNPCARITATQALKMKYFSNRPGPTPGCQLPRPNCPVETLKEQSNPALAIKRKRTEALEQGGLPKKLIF
Cyclin-dependent kinase 9, sequence (P50750 whole entry): as the sequence (P50750 whole entry) above
Cyclin-dependent kinase 6, sequence (Q00534 whole entry): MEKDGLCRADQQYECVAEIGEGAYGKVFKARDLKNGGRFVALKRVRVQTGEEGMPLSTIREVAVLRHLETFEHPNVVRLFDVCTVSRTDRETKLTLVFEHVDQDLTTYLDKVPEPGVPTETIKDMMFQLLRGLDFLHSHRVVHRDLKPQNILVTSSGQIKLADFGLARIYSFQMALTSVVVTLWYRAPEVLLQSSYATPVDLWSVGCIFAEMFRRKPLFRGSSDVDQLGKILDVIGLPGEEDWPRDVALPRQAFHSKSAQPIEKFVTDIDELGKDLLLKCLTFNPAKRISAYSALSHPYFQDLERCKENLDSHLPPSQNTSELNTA
Cyclin-dependent kinase 5, sequence (Q00535 whole entry): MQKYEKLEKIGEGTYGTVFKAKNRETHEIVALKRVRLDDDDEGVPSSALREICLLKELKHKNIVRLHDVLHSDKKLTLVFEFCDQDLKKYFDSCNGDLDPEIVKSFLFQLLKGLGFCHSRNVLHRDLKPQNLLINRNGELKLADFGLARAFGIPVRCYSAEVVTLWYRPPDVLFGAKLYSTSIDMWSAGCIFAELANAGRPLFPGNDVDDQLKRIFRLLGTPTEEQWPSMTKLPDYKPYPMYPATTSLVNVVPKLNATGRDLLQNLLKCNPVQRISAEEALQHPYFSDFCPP

CC(C)n1nnc2ccc(-c3ccnc(Nc4ccc(C(=O)N5CCOCC5)cc4)c3)cc21
inhibition [1]: 83%

COc1cc(C(=O)N2CCOCC2)ccc1Nc1cc(-c2ccc3nnn(C(C)(C)C)c3c2)ccn1
inhibition [1]: 28.1%

CC(C)n1nnc2ccc(-c3ccnc(Nc4cc(C(=O)N5CCNC(=O)C5)ccn4)c3)cc21
IC50 (CDK9/cyclin T1): 1.94 nM
GI50 (HCT-116): 520 nM
GI50 (HT-29): > 2000 nM

COc1cc(C(=O)N2CCOCC2)ccc1Nc1cc(-c2ccc3nnn(C4CCCCC4)c3c2)ccn1
inhibition [1]: 16.3%

O=C(c1ccc(Nc2cc(-c3ccc4nnn(C5CCCCC5)c4c3)ccn2)cc1)N1CCOCC1
inhibition [1]: 76%

CCN1CCN(C(=O)c2ccnc(Nc3cc(-c4ccc5nnn(C(C)C)c5c4)ccn3)c2)CC1
IC50 (CDK9/cyclin T1): 3.92 nM
GI50 (HCT-116): 60 nM
GI50 (HT-29): 510 nM

O=C(c1ccc(Nc2cc(-c3ccc4nnn(C5CCCCC5)c4c3)ccn2)c(F)c1)N1CCOCC1
inhibition [1]: 41.1%

CC(C)n1nnc2ccc(-c3ccnc(Nc4ccc(C(=O)N5CCNC(=O)C5)cn4)c3)cc21
IC50 (CDK9/cyclin T1): 2.3 nM
GI50 (HCT-116): 90 nM
GI50 (HT-29): 300 nM

O=C(c1ccc(Nc2cc(-c3ccc4nnn(C5CCCC5)c4c3)ccn2)c(C(F)(F)F)c1)N1CCOCC1
inhibition [1]: 47.1%

CC(C)n1nnc2ccc(-c3ccnc(Nc4ccc(C(=O)N5CCOCC5)cn4)c3)cc21
IC50 (CDK9/cyclin T1): 9.43 nM
GI50 (HCT-116): 350 nM
GI50 (HT-29): 220 nM
inhibition [1]: 101%

CC(C)N1CCN(C(=O)c2ccnc(Nc3cc(-c4ccc5nnn(C(C)C)c5c4)ccn3)c2)CC1
IC50 [2]: > 500 nM
IC50 (CDK9/cyclin T1): 3.37 nM
GI50 (HCT-116): 40 nM
GI50 (HT-29): 410 nM
CLH [3]: 158.9 µL/min/mg
inhibition at 0.25 h, 10 µM (CYP3A4): 15.7%
half-life at 100 µM [4]: 7.8 min
IC50 [5]: > 500 nM
IC50 [6]: 167 nM
inhibition at 0.25 h, 10 µM (CYP2D6): 7.1%
microsomal CLint at 100 µM [7]: 177 µL/min/mg
IC50 [8]: 33.1 nM
inhibition at 0.25 h, 10 µM (CYP2C9): 56.3%
IC50 [9]: 3.3 nM
IC50 [10]: > 500 nM
remaining at 1 h, 100 µM [11]: 0.5%
IC50 [12]: 125 nM
inhibition at 0.25 h, 10 µM (CYP2C19): 48.3%
half-life [13]: > 289 min
IC50 [14]: > 500 nM
IC50 [15]: > 500 nM
inhibition at 0.25 h, 10 µM (CYP1A2): 25.1%

CC(C)n1nnc2ccc(-c3ccnc(Nc4cc(C(=O)N5CCN(C)CC5)ccn4)c3)cc21
IC50 (CDK9/cyclin T1): 3.44 nM
GI50 (HCT-116): 80 nM
GI50 (HT-29): 770 nM

CC(C)(C)n1nnc2ccc(-c3ccnc(Nc4ccc(C(=O)N5CCOCC5)cn4)c3)cc21
IC50 (CDK9/cyclin T1): 9.73 nM
inhibition [1]: 98.9%

O=C(c1ccc(Nc2cc(-c3ccc4nnn(C5CCCC5)c4c3)ccn2)c(F)c1)N1CCOCC1
inhibition [1]: 12.9%

CC(C)(C)n1nnc2ccc(-c3ccnc(Nc4ccc(C(=O)N5CCOCC5)cc4C(F)(F)F)c3)cc21
inhibition [1]: 6.51%

CC(C)n1nnc2ccc(-c3ccnc(Nc4cc(C(=O)N5CCCC5)ccn4)c3)cc21
IC50 [2]: > 500 nM
IC50 (CDK9/cyclin T1): 1.32 nM
GI50 (HCT-116): 80 nM
GI50 (HT-29): 420 nM
CLH [3]: 71.8 µL/min/mg
inhibition at 0.25 h, 10 µM (CYP3A4): 0%
half-life at 100 µM [4]: 17.4 min
IC50 [5]: > 500 nM
IC50 [6]: 134 nM
inhibition at 0.25 h, 10 µM (CYP2D6): 0%
microsomal CLint at 100 µM [7]: 79.8 µL/min/mg
IC50 [8]: 11.5 nM
inhibition at 0.25 h, 10 µM (CYP2C9): 29.6%
IC50 [9]: 1.3 nM
IC50 [10]: > 500 nM
remaining at 1 h, 100 µM [11]: 9%
IC50 [12]: 161 nM
inhibition at 0.25 h, 10 µM (CYP2C19): 56.1%
half-life [13]: > 289 min
IC50 [14]: > 500 nM
IC50 [15]: 35.6 nM
inhibition at 0.25 h, 10 µM (CYP1A2): 12.2%

O=C(c1ccc(Nc2cc(-c3ccc4nnn(C5CCCCC5)c4c3)ccn2)nc1)N1CCOCC1
IC50 (CDK9/cyclin T1): 13.2 nM
inhibition [1]: 98%
